US20260167623A1 (NIKANG THERAPEUTICS, INC., priority 2022, published 2026)

Legend:
CDK2 [1] = biological target: T1, CDK2 (Homo sapiens, UniProt P24941); assay: Inhibition of CDK2: phospho-Rb (S807/811) HTRF measurement in OVCAR3 cells, 24 h; type: cell-based; settings: 24 h compound treatment, read-out: pRB_OVCAR3_24h
T1 construct: High-Throughput Measurement of Cellular Endogenous CDK2; endogenous in cells; host or cells: OVCAR3
In short: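 OVCAR3 cells, seeded overnight, were exposed to compounds at 0.3 to 10,000 nM for 24 h, then lysed. Rb S807/811 phosphorylation read by HTRF (665/620 nm ratio) after 4 h detection at room temperature; data normalized to DMSO and IC50 from four-parameter logistic fit.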

CDK2 [2] = biological target: T1, CDK2; assay: High-throughput HTRF measurement of cellular endogenous CDK2 level (degradation, DC50/Dmax) in OVCAR3 cells, 6 h; type: cell-based; settings: 6 h compound treatment, HTRF total CDK2, read-out: DC50_OVCAR3_6h
Method: High-Throughput Measurement of Cellular Endogenous CDK2
Effects of compounds on cellular CDK2 level were monitored by a high-throughput HTRF assay.
To determine half maximal degradation concentration (DC50) and maximum degradation level (Dmax) values of compounds, cellular CDK2 level was measured in 96-well format using HTRF total CDK2 cellular kit (Cat #64CDK2TPEG) from Cisbio.
On Day 1, OVCAR3 cells were seeded into 96-well tissue-culture treated plates at 20,000 cells/well in 200 μL and incubated overnight at 37° C. in CO2 atmosphere. On Day 2 cells were treated with compounds at concentration ranging from 0.03 to 1,000 nM using HP D300 digital dispenser. 6 hours after compound treatment, cell culture media was removed by flicking the plate and tapping the plate against clean paper towel. Immediately 30 μL 1× lysis buffer was supplemented from the kit and added to each well and the plate is incubated at room temperature on shaker for 30 min. After homogenization by pipetting up and down, 8 μL cell lysate from 96-well cell culture plate was transferred to 384-well small volume white detection plate. 2 μL premixed detection solution was added and the plate is covered with sealer. To prepare the detection solution, d2 conjugated-CDK2 antibody and Eu-cryptate conjugated CDK2 antibody were diluted into detection buffer following manufacturer's instruction. Detection plates were incubated overnight at room temperature and read on ClarioStar (BMG Labtech) in TR-FRET mode (665 nM and 620 nM). The TR-FRET ratio (665 nM/620 nM) was plotted against the compound concentration and normalized to DMSO controls (0% degradation) and lysis buffer controls (100% degradation). Half maximal degradation concentration (DC 50) […] were calculated with a four-parameter logistic fit using GraphPad Prism (version 8; La Jolla, CA).
In the table below, AA indicates a DC50 of greater than or equal to 0.5 nM but less than 1 nM; A indicates a DC50 of greater than or equal to 1 nM but less than or equal to 10 nM; B indicates a DC50 of greater than 10 nM but less than or equal to 100 nM; C indicates a DC50 of greater than 100 nM but less than or equal to 1 μM; and D indicates a DC50 of greater than 1 μM […] but less than or equal to 5 μM. NT means not tested.

Row | Compound | IC50 (CDK2 [1]) | DC50 (CDK2 [2])
1 | O=C1CCC(N2Cc3cc(N4CCC(N5CC(Oc6cccc(S(=O)(=O)N7CCC(Nc8ncc(Cl)cn8)CC7)c6)C5)CC4)ccc3C2=O)C(=O)N1 (stereo not shown) [Example 105, 3-(5-(4-(3-(3-((4-((5-chloropyrimidin-2-yl)amino)piperidin-1-yl)sulfonyl)phenoxy)-azetidin-1-yl)piperidin-1-yl)-1-oxoisoindolin-2-yl)piperidine-2,6-dione] | 100 to 500 nM | 10 to 100 nM
2 | O=C1CCN(c2nn(CC(F)(F)F)c3cc(C4CCN(CC5CCN(c6cccc(S(=O)(=O)N7CCC(Nc8ncc(C(F)(F)F)cn8)CC7)c6)CC5)CC4)ccc23)C(=O)N1 [Example 91, 1-(1-(2,2,2-trifluoroethyl)-6-(1-((1-(3-((4-((5-(trifluoromethyl)pyrimidin-2-yl)amino)piperidin-1-yl)sulfonyl)phenyl)-piperidin-4-yl)methyl)piperidin-4-yl)-1H-indazol-3-yl)dihydropyrimidine-2,4(1H,3H)-dione] | 100 to 500 nM | 10 to 100 nM
3 | Cn1nc(N2CCC(=O)NC2=O)c2ccc(C3CCC(CN4CCC(c5cccc(S(=O)(=O)N6CCC(Nc7ncc(C(F)(F)F)cn7)CC6)c5)CC4)CC3)cc21 (stereo not shown) [Example 238, 1-(1-methyl-6-(4-((4-(3-((4-((5-(trifluoromethyl)pyrimidin-2-yl)amino)piperidin-1-yl)sulfonyl)phenyl)piperidin-1-yl)methyl)cyclohexyl)-1H-indazol-3-yl)dihydropyrimidine-2,4(1H,3H)-dione] | 1 to 100 nM | 10 to 100 nM
4 | Cn1nc(N2CCC(=O)NC2=O)c2ccc(C3CCN(Cc4cccc(S(=O)(=O)N5CCC(Nc6ncc(OC(F)F)cn6)CC5)c4)CC3)cc21 [Example 35, 1-(6-(1-(3-((4-((5-(difluoromethoxy)-pyrimidin-2-yl)amino)piperidin-1-yl)sulfonyl)benzyl)piperidin-4-yl)-1-methyl-1H-indazol-3-yl)dihydropyrimidine-2,4(1H,3H)-dione] | 1 to 100 nM | 10 to 100 nM
5 | Cn1nc(N2CCC(=O)NC2=O)c2ccc(C3CCN(CC4CCN(c5cccc(S(=O)(=O)N6CCC(Nc7ncc(C(F)(F)F)cn7)CC6)c5)CC4)CC3)c(Cl)c21 [Example 89, 1-(7-chloro-1-methyl-6-(1-((1-(3-((4-((5-(trifluoromethyl)pyrimidin-2-yl)amino)-piperidin-1-yl)sulfonyl)phenyl)piperidin-4-yl)methyl)piperidin-4-yl)-1H-indazol-3-yl)dihydropyrimidine-2,4(1H,3H)-dione] | 1 to 100 nM | 10 to 100 nM
6 | Cn1nc(N2CCC(=O)NC2=O)c2ccc(C3CCN(Cc4cccc(S(=O)(=O)N5CCC(Nc6ncc(C(F)(F)F)cn6)CC5)c4)CC3)cc21 [Example 1] | 1 to 100 nM | 1 to 10 nM
7 | Cn1nc(N2CCC(=O)NC2=O)c2ccc(C3CCN(CC4CCN(c5cccc(S(=O)(=O)N6CCC(Nc7ncc(C(F)(F)F)cn7)CC6)c5)CC4)CC3)c(F)c21 [Example 94, 1-(7-fluoro-1-methyl-6-(1-((1-(3-((4-((5-(trifluoromethyl)pyrimidin-2-yl)amino)-piperidin-1-yl)sulfonyl)phenyl)piperidin-4-yl)methyl)piperidin-4-yl)-1H-indazol-3-yl)dihydropyrimidine-2,4(1H,3H)-dione] | 1 to 100 nM | 10 to 100 nM
8 | Cn1cc(C2CCC(=O)NC2=O)c2ccc(C3CCN(CC4CCN(c5cccc(S(=O)(=O)N6CCC(Nc7ncc(C(F)(F)F)cn7)CC6)c5)CC4)CC3)cc21 (stereo not shown) [Example 251, 3-(1-methyl-6-(1-((1-(3-((4-((5-(trifluoromethyl)pyrimidin-2-yl)amino)piperidin-1-yl)sulfonyl)phenyl)piperidin-4-yl)methyl)piperidin-4-yl)-1H-indol-3-yl)piperidine-2,6-dione] | 1 to 100 nM | 10 to 100 nM
9 | O=C1CCN(c2noc3cc(C4CCN(CC5CCN(c6cccc(S(=O)(=O)N7CCC(Nc8ncc(Cl)cn8)CC7)c6)CC5)CC4)ccc23)C(=O)N1 [Example 221, 1-(6-(1-((1-(3-((4-((5-chloropyrimidin-2-yl)amino)piperidin-1-yl)sulfonyl)phenyl)piperidin-4-yl)methyl)piperidin-4-yl)benzo[d]isoxazol-3-yl)dihydropyrimidine-2,4(1H,3H)-dione] | 1 to 100 nM | 1 to 10 nM
10 | CCc1cnc(NC2CCN(S(=O)(=O)c3cccc(CN4CCC(c5ccc6c(N7CCC(=O)NC7=O)nn(C)c6c5)CC4)c3)CC2)nc1 [Example 61, 1-(6-(1-(3-((4-((5-ethylpyrimidin-2-yl)amino)piperidin-1-yl)sulfonyl)benzyl)-piperidin-4-yl)-1-methyl-1H-indazol-3-yl)dihydropyrimidine-2,4(1H,3H)-dione] | 1 to 100 nM | 10 to 100 nM
11 | Cn1nc(N2CCC(=O)NC2=O)c2ccc(C3CCN(CC4CCN(c5cccc(S(=O)(=O)N6CCC(Nc7ncc(Cl)cn7)CC6)c5)CC4)CC3)c(Cl)c21 [Example 71, 1-(7-chloro-6-(1-((1-(3-((4-((5-chloro-pyrimidin-2-yl)amino)piperidin-1-yl)sulfonyl)phenyl)piperidin-4-yl)methyl)-piperidin-4-yl)-1-methyl-1H-indazol-3-yl)dihydropyrimidine-2,4(1H,3H)-dione] | 1 to 100 nM | 1 to 10 nM
12 | N#Cc1ccc(S(=O)(=O)N2CCC(Nc3ncc(C(F)(F)F)cn3)CC2)cc1N1CCC(CN2CCC(c3cccc4c3oc(=O)n4C3CCC(=O)NC3=O)CC2)CC1 (stereo not shown) [Example 198, 2-(4-((4-(3-(2,6-dioxopiperidin-3-yl)-2-oxo-2,3-dihydrobenzo[d]oxazol-7-yl)piperidin-1-yl)methyl)piperidin-1-yl)-4-((4-((5-(trifluoromethyl)pyrimidin-2-yl)amino)piperidin-1-yl)sulfonyl)benzonitrile] | 1 to 100 nM | 1 to 10 nM
13 | Cn1nc(N2CCC(=O)NC2=O)c2cc(F)c(C3CCN(Cc4cccc(S(=O)(=O)N5CCC(Nc6ncc(Cl)cn6)CC5)c4)CC3)cc21 [Example 23, 1-(6-(1-(3-((4-((5-chloropyrimidin-2-yl)amino)piperidin-1-yl)sulfonyl)benzyl)-piperidin-4-yl)-5-fluoro-1-methyl-1H-indazol-3-yl)dihydropyrimidine-2,4(1H,3H)-dione] | 100 to 500 nM | 10 to 100 nM
14 | Cn1c(=O)n(C2CCC(=O)NC2=O)c2ccc(C3CCN(CC4CCN(c5cc(S(=O)(=O)N6CCC(Nc7ncc(Cl)cn7)CC6)ccc5C#N)CC4)CC3)cc21 (stereo not shown) [Example 204, 4-((4-((5-chloropyrimidin-2-yl)amino)piperidin-1-yl)sulfonyl)-2-(4-((4-(1-(2,6-dioxopiperidin-3-yl)-3-methyl-2-oxo-2,3-dihydro-1H-benzo[d]imidazol-5-yl)piperidin-1-yl)methyl)piperidin-1-yl)benzonitrile] | 1 to 100 nM | 1 to 10 nM
15 | Cn1c(=O)n(C2CCC(=O)NC2=O)c2cccc(C3CCN(Cc4cccc(S(=O)(=O)N5CCC(Nc6ncc(C(F)(F)F)cn6)CC5)c4)CC3)c21 (stereo not shown) [Example 83, 3-(3-methyl-2-oxo-4-(1-(3-((4-((5-(trifluoromethyl)pyrimidin-2-yl)amino)piperidin-1-yl)sulfonyl)benzyl)-piperidin-4-yl)-2,3-dihydro-1H-benzo[d]imidazol-1-yl)piperidine-2,6-dione] | 1 to 100 nM | 1 to 10 nM
16 | O=C1CCC(N2Cc3cc(N4CCN(Cc5cccc(S(=O)(=O)N6CCC(Nc7ncc(C(F)(F)F)cn7)CC6)c5)CC4)ccc3C2=O)C(=O)N1 (stereo not shown) [Example 76, 3-(1-oxo-5-(4-(3-((4-((5-(trifluoromethyl)-pyrimidin-2-yl)amino)piperidin-1-yl)sulfonyl)benzyl)piperazin-1-yl)isoindolin-2-yl)piperidine-2,6-dione] | 1 to 100 nM | 1 to 10 nM
17 | Cn1nc(N2CCC(=O)NC2=O)c2ccc(C3CCN(CC4CCN(c5ccc(S(=O)(=O)N6CCC(Nc7ncc(C(F)(F)F)cn7)CC6)cc5)CC4)CC3)cc21 [Example 165, 1-(1-methyl-6-(1-((1-(4-((4-((5-(trifluoromethyl)pyrimidin-2-yl)amino)piperidin-1-yl)sulfonyl)phenyl)piperidin-4-yl)methyl)piperidin-4-yl)-1H-indazol-3-yl)dihydropyrimidine-2,4(1H,3H)-dione] | 1 to 100 nM | 10 to 100 nM
